Reference: PubChem BioAssay AID1259407 (Chemical Carcinogenesis Research Information System (CCRIS), 2018)
The source made the active and inactive calls. No rule for the calls is given here.

Tested on: CCRIS mutagenicity, Ames/micronucleus/aberration tests
Assay: CCRIS mutagenicity studies
[1] = Test System: AMES SALMONELLA TYPHIMURIUM, Strain/Indicator: TA98, Metabolic Activation: NONE, Method: PREINCUBATION
[2] = Test System: AMES SALMONELLA TYPHIMURIUM, Strain/Indicator: TA100, Metabolic Activation: NONE, Method: PREINCUBATION
[3] = Test System: AMES SALMONELLA TYPHIMURIUM, Strain/Indicator: TA1535, Metabolic Activation: NONE, Method: PREINCUBATION
[4] = Test System: AMES SALMONELLA TYPHIMURIUM, Strain/Indicator: TA1537, Metabolic Activation: NONE, Method: PREINCUBATION
[5] = Test System: AMES SALMONELLA TYPHIMURIUM, Strain/Indicator: TA100, Metabolic Activation: NONE, Method: STANDARD PLATE
[6] = Test System: AMES SALMONELLA TYPHIMURIUM, Strain/Indicator: TA100, Metabolic Activation: RAT, LIVER, S-9, AROCLOR 1254, Method: STANDARD PLATE
[7] = Test System: AMES SALMONELLA TYPHIMURIUM, Strain/Indicator: TA102, Metabolic Activation: NONE, Method: PREINCUBATION
[8] = Test System: AMES SALMONELLA TYPHIMURIUM, Strain/Indicator: TA98, Metabolic Activation: NONE, Method: STANDARD PLATE
[9] = Test System: AMES SALMONELLA TYPHIMURIUM, Strain/Indicator: TA98, Metabolic Activation: RAT, LIVER, S-9, AROCLOR 1254, Method: STANDARD PLATE
[10] = Test System: AMES SALMONELLA TYPHIMURIUM, Strain/Indicator: TA1535, Metabolic Activation: NONE, Method: STANDARD PLATE
[11] = Test System: AMES SALMONELLA TYPHIMURIUM, Strain/Indicator: TA1535, Metabolic Activation: RAT, LIVER, S-9, AROCLOR 1254, Method: STANDARD PLATE
[12] = Test System: AMES SALMONELLA TYPHIMURIUM, Strain/Indicator: TA1537, Metabolic Activation: RAT, LIVER, S-9, AROCLOR 1254, Method: STANDARD PLATE

With `Cc1n[nH]c(=O)[nH]c1=O` the mutagenic call (Test System: AMES SALMONELLA TYPHIMURIUM, Strain/Indicator: TA98, Metabolic Activation: MAIZE SEEDLING, S-14, Method: PREINCUBATION) was “inactive; negative”, the mutagenic call (Test System: AMES SALMONELLA TYPHIMURIUM, Strain/Indicator: TA98, Metabolic Activation: MOUSE, LIVER, S-9, Method: PREINCUBATION) was “inactive; negative” and the mutagenic call [1] was “inactive; negative”. For the same compound, the mutagenic call (Test System: AMES SALMONELLA TYPHIMURIUM, Strain/Indicator: TA100, Metabolic Activation: MAIZE SEEDLING, S-14, Method: PREINCUBATION) was “inactive; negative”, the mutagenic call (Test System: AMES SALMONELLA TYPHIMURIUM, Strain/Indicator: TA100, Metabolic Activation: MOUSE, LIVER, S-9, Method: PREINCUBATION) was “inactive; negative” and the mutagenic call [2] was “inactive; negative”. The mutagenic call [3] was “inactive; negative”, the mutagenic call [4] was “inactive; negative” and the mutagenic call (Test System: AMES SALMONELLA TYPHIMURIUM, Strain/Indicator: TA1538, Metabolic Activation: NONE, Method: PREINCUBATION) was “inactive; negative”.

In the case of `CN1CC[C@H](c2c(O)cc(O)c3c(=O)cc(-c4ccccc4Cl)oc23)[C@H](O)C1`, the mutagenic call (Test System: Mouse lymphoma, Strain/Indicator: L5178Y (tk+/tk-), Metabolic Activation: None, Method: Suspension/plate) is reported as “inactive; negative” and the mutagenic call (Test System: Mouse lymphoma, Strain/Indicator: L5178Y (tk+/tk-), Metabolic Activation: Rat, Liver, S-9, Aroclor 1254, Method: Suspension/plate) is reported as “active; inconclusive (previous evaluation positive)”.

For `NN(c1ccccc1)c1ccccc1`, the mutagenic call (Test System: AMES SALMONELLA TYPHIMURIUM, Strain/Indicator: TA97, Metabolic Activation: NONE, Method: STANDARD PLATE) was “inactive; negative”, the mutagenic call (Test System: AMES SALMONELLA TYPHIMURIUM, Strain/Indicator: TA97, Metabolic Activation: RAT, LIVER, S-9, AROCLOR 1254, Method: STANDARD PLATE) was “inactive; negative” and the mutagenic call [5] was “inactive; negative”. For the same compound, the mutagenic call [6] was “inactive; negative”.

With `CC(=O)OCc1ccc2c(c1)OCO2` the mutagenic call (Test System: AMES SALMONELLA TYPHIMURIUM, Strain/Indicator: TA98, Metabolic Activation: HAMSTER, LIVER, S-9, AROCLOR 1254 (10%), Method: PREINCUBATION) was “inactive; negative”, the mutagenic call [1] was “inactive; negative” and the mutagenic call (Test System: AMES SALMONELLA TYPHIMURIUM, Strain/Indicator: TA98, Metabolic Activation: RAT, LIVER, S-9, AROCLOR 1254 (10%), Method: PREINCUBATION) was “inactive; negative”. The mutagenic call (Test System: AMES SALMONELLA TYPHIMURIUM, Strain/Indicator: TA100, Metabolic Activation: HAMSTER, LIVER, S-9, AROCLOR 1254 (10%), Method: PREINCUBATION) was “inactive; negative”, the mutagenic call [2] was “inactive; negative” and the mutagenic call (Test System: AMES SALMONELLA TYPHIMURIUM, Strain/Indicator: TA100, Metabolic Activation: RAT, LIVER, S-9, AROCLOR 1254 (10%), Method: PREINCUBATION) was “inactive; negative”. The mutagenic call (Test System: AMES SALMONELLA TYPHIMURIUM, Strain/Indicator: TA1535, Metabolic Activation: HAMSTER, LIVER, S-9, AROCLOR 1254 (10%), Method: PREINCUBATION) was “inactive; negative”, the mutagenic call [3] was “inactive; negative” and the mutagenic call (Test System: AMES SALMONELLA TYPHIMURIUM, Strain/Indicator: TA1535, Metabolic Activation: RAT, LIVER, S-9, AROCLOR 1254 (10%), Method: PREINCUBATION) was “inactive; negative”. The mutagenic call (Test System: AMES SALMONELLA TYPHIMURIUM, Strain/Indicator: TA1537, Metabolic Activation: HAMSTER, LIVER, S-9, AROCLOR 1254 (10%), Method: PREINCUBATION) was “inactive; negative”, the mutagenic call [4] was “inactive; negative” and the mutagenic call (Test System: AMES SALMONELLA TYPHIMURIUM, Strain/Indicator: TA1537, Metabolic Activation: RAT, LIVER, S-9, AROCLOR 1254 (10%), Method: PREINCUBATION) was “inactive; negative”.

`CN(C)c1ccc(N=Nc2ccc(N(C)C)cc2)cc1` was tested, and the mutagenic call (Test System: AMES SALMONELLA TYPHIMURIUM, Strain/Indicator: TA98, Metabolic Activation: RAT, LIVER, S-9, POLYCHLORINATED BIPHENYLS, Method: PREINCUBATION) was “inactive; negative” and the mutagenic call (Test System: AMES SALMONELLA TYPHIMURIUM, Strain/Indicator: TA100, Metabolic Activation: RAT, LIVER, S-9, POLYCHLORINATED BIPHENYLS, Method: PREINCUBATION) was “inactive; negative”.

With `O=c1c(O)c2c(c3c1ccc1[nH]c4c(ccc5ccccc54)cc13)O2` the mutagenic call (Test System: AMES SALMONELLA TYPHIMURIUM, Strain/Indicator: TA98, Metabolic Activation: RAT, LIVER, AROCLOR 1254, NADPH GENERATING SYSTEM, Method: STANDARD PLATE) was “inactive; negative”, the mutagenic call (Test System: AMES SALMONELLA TYPHIMURIUM, Strain/Indicator: TA100, Metabolic Activation: RAT, LIVER, AROCLOR 1254, NADPH GENERATING SYSTEM, Method: STANDARD PLATE) was “inactive; negative” and the mutagenic call (Test System: CHINESE HAMSTER V-79, Strain/Indicator: V-79/8-AZAGUANINE, Method: STANDARD PLATE) was “inactive; negative”.

With `CCCCC[N+](=O)[O-]` the mutagenic call [1] was “inactive; negative”, the mutagenic call (Test System: AMES SALMONELLA TYPHIMURIUM, Strain/Indicator: TA98, Metabolic Activation: RAT, LIVER, S-9, AROCLOR, Method: PREINCUBATION) was “inactive; negative” and the mutagenic call [2] was “inactive; negative”. For the same compound, the mutagenic call (Test System: AMES SALMONELLA TYPHIMURIUM, Strain/Indicator: TA100, Metabolic Activation: RAT, LIVER, S-9, AROCLOR, Method: PREINCUBATION) was “inactive; negative”, the mutagenic call [7] was “inactive; negative” and the mutagenic call (Test System: AMES SALMONELLA TYPHIMURIUM, Strain/Indicator: TA102, Metabolic Activation: RAT, LIVER, S-9, AROCLOR, Method: PREINCUBATION) was “inactive; negative”. For the same compound, the mutagenic call (Test System: UDS RAT HEPATOCYTES, Strain/Indicator: THY INCORP, Metabolic Activation: NONE) was “inactive; negative”.

In the case of `CNCCC=C1c2ccccc2CCc2ccccc21`, the mutagenic call [8] is reported as “inactive; negative”, the mutagenic call [9] is reported as “inactive; negative” and the mutagenic call [5] is reported as “inactive; negative”. The mutagenic call [6] was “inactive; negative”, the mutagenic call [10] was “inactive; negative” and the mutagenic call [11] was “inactive; negative”. The mutagenic call (Test System: AMES SALMONELLA TYPHIMURIUM, Strain/Indicator: TA1537, Metabolic Activation: NONE, Method: STANDARD PLATE) was “inactive; negative” and the mutagenic call [12] was “inactive; negative”.

In the case of `Cc1cc(O)c2c(c1)C(=O)c1cccc(O)c1C2=O`, the mutagenic call (End Point: IN VITRO CHROMOSOMAL ABERRATIONS, Test System: CHO CELLS, Metabolic Activation: MALE WISTAR RAT, LIVER, S-9) is reported as “inactive; negative; tested to limit of solubility”, the mutagenic call (End Point: IN VITRO CHROMOSOMAL ABERRATIONS, Test System: CHO CELLS, Metabolic Activation: NONE) is reported as “inactive; negative; tested to limit of solubility” and the mutagenic call [1] is reported as “inactive; negative”. For the same compound, the mutagenic call [8] was “inactive; negative”, the mutagenic call [9] was “inactive; negative” and the mutagenic call (Test System: AMES SALMONELLA TYPHIMURIUM, Strain/Indicator: TA98, Metabolic Activation: RAT, LIVER, S-9, PCB, Method: PREINCUBATION) was “inactive; negative”. For the same compound, the mutagenic call [2] was “inactive; negative”, the mutagenic call [5] was “inactive; negative” and the mutagenic call [6] was “inactive; negative”. The mutagenic call (Test System: AMES SALMONELLA TYPHIMURIUM, Strain/Indicator: TA100, Metabolic Activation: RAT, LIVER, S-9, PCB, Method: PREINCUBATION) was “inactive; negative”, the mutagenic call [7] was “active; positive” and the mutagenic call (Test System: AMES SALMONELLA TYPHIMURIUM, Strain/Indicator: TA102, Metabolic Activation: RAT, LIVER, S-9, Method: PREINCUBATION) was “active; positive”. The mutagenic call [10] was “inactive; negative”, the mutagenic call [11] was “inactive; negative” and the mutagenic call [12] was “active; positive”. For the same compound, the mutagenic call (Test System: AMES SALMONELLA TYPHIMURIUM, Strain/Indicator: TA1537, Metabolic Activation: RAT, LIVER, S-9, Method: PREINCUBATION) was “active; positive”, the mutagenic call (Test System: AMES SALMONELLA TYPHIMURIUM, Strain/Indicator: TA1538, Metabolic Activation: NONE, Method: STANDARD PLATE) was “inactive; negative” and the mutagenic call (Test System: AMES SALMONELLA TYPHIMURIUM, Strain/Indicator: TA1538, Metabolic Activation: RAT, LIVER, S-9, AROCLOR 1254, Method: STANDARD PLATE) was “inactive; negative”.
